Measured values as given in patent US11596639B2, “Substituted indole Mcl-1 inhibitors” (Vanderbilt University, priority 2016, dated 2023).
pKi: −log10 of the molar value. Where two headings read alike, the source gives them in different places.

Columns and labels:
[1] = biological target: Mcl-1 (Homo sapiens (Human), UniProt Q07820); test: Fluorescence polarization anisotropy (FPA) competition assay, FITC-Bak or FITC-Bim BH3 peptide; assay type: binding; conditions: read-out: Ki for Inhibition of Mcl-1 by FPA assay
Sequence of Mcl-1 (Q07820 172-327): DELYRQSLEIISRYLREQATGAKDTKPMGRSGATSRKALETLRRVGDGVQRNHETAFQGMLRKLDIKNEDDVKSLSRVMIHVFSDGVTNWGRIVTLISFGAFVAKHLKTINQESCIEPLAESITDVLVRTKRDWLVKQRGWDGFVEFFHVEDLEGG

[2] = system: H929 human cancer cell lines; test: Cellular viability / proliferation (Cell TiterGlo, 72 h); assay type: cell-based
Outline: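 Plating is at 1,000 cells/well in 10% FBS medium; after 24 h, compound is added as a 2-fold series starting at 50 μM with under 1% DMSO.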

[3] = Homo sapiens, NCI-H929, 72 h, read-out: GI50 on cellular proliferation of H929 human cancer cell lines, H929 cells, 72 h, Cell TiterGlo, 10% FBS

Row | SMILES | pKi [1] | GI50 [2, 3] [µM] | GI50 ([2]; read-out: GI50 on cellular proliferation of H929 human cancer cell lines, H929 cells, 72 h, Cell TiterGlo, 10% FBS) [µM]
1 | Cc1cc(OCCCc2c3n(c4c(-c5c(C)nn(C)c5C)c(Cl)ccc24)[C@H](C)CN(c2c(C)n(C)c4ccc(C(=O)O)cc24)C3=O)cc(C)c1Cl [Example 275, 3-[(4R)-7-chloro-10-[3-(4-chloro-3,5-dimethyl-phenoxy)propyl]-4-methyl-1-oxo-6-(1,3,5-trimethylpyrazol-4-yl)-3,4-dihydropyrazino[1,2-a]indol-2-yl]-1,2-dimethyl-indole-5-carboxylic acid] | > 9.00 | 0.37 | –
2 | Cc1cc(OCCCc2c3n(c4c(-c5c(C)nn(C)c5C)c(Cl)ccc24)[C@H](C)CN(c2cn(C)c4ccc(C(=O)N(C)C)cc24)C3=O)cc(C)c1Cl [Example 289, 3-[(4R)-7-chloro-10-[3-(4-chloro-3,5-dimethyl-phenoxy)propyl]-4-methyl-1-oxo-6-(1,3,5-trimethylpyrazol-4-yl)-3,4-dihydropyrazino[1,2-a]indol-2-yl]-N,N,1-trimethyl-indole-5-carboxamide] | 7.82 | 5.2 | –
3 | Cc1cc(OCCCc2c3n(c4c(-c5c(C)nn(C)c5C)c(Cl)ccc24)[C@H](C)CN(c2cc(OCCN4CCN(C)CC4)cc4cc(C(=O)O)n(C)c24)C3=O)cc(C)c1Cl [Example 453, (R)-7-(7-Chloro-10-(3-(4-chloro-3,5-dimethylphenoxy)propyl)-4-methyl-1-oxo-6-(1,3,5-trimethyl-1H-pyrazol-4-yl)-3,4-dihydropyrazino[1,2-a]indol-2(1H)-yl)-1-methyl-5-(2-(4-methylpiperazin-1-yl)ethoxy)-1H-indole-2-carboxylic acid] | 8.77 | 0.33 | –
4 | Cc1cc(OCCCc2c3n(c4c(-c5c(C)nn(C)c5C)c(Cl)ccc24)[C@H](C)CN(c2cccc4cc(C(=O)O)n(Cc5ccccn5)c24)C3=O)cc(C)c1Cl [Example 247, 7-[(4R)-7-chloro-10-[3-(4-chloro-3,5-dimethyl-phenoxy)propyl]-4-methyl-1-oxo-6-(1,3,5-trimethylpyrazol-4-yl)-3,4-dihydropyrazino[1,2-a]indol-2-yl]-1-(2-pyridylmethyl)indole-2-carboxylic acid] | > 9.00 | – | < 0.2
5 | Cc1cc(OCCCc2c3n(c4c(-c5c(C)nn(C)c5C)c(Cl)ccc24)CCCN(c2cc(C(=O)O)c4c(Cl)cn(C)c4c2)C3=O)cc(C)c1Cl [Example 3, 3-Chloro-6-(8-chloro-11-(3-(4-chloro-3,5-dimethylphenoxy)propyl)-1-oxo-7-(1,3,5-trimethyl-1H-pyrazol-4-yl)-4,5-dihydro-1H-[1,4]diazepino[1,2-a]indol-2(3H)-yl)-1-methyl-1H-indole-4-carboxylic acid] | 8.96 | 6.6 | –
6 | Cc1cc(OCCCc2c3n(c4c(-c5c(C)nn(C)c5C)c(Cl)ccc24)[C@H](C)CN(c2cn(C)c4c(C(=O)O)cccc24)C3=O)cc(C)c1Cl [Example 75, (R)-3-(7-Chloro-10-(3-(4-chloro-3,5-dimethylphenoxy)propyl)-4-methyl-1-oxo-6-(1,3,5-trimethyl-1H-pyrazol-4-yl)-3,4-dihydropyrazino[1,2-a]indol-2(1H)-yl)-1-methyl-1H-indole-7-carboxylic acid] | > 9.00 | 1.1 | –
7 | COCCn1c(C(=O)O)cc2cccc(N3C[C@@H](C)n4c(c(CCCOc5cc(C)c(Cl)c(C)c5)c5ccc(Cl)c(-c6c(C)nn(C)c6C)c54)C3=O)c21 [Example 256, 7-[(4R)-7-chloro-10-[3-(4-chloro-3,5-dimethyl-phenoxy)propyl]-4-methyl-1-oxo-6-(1,3,5-trimethylpyrazol-4-yl)-3,4-dihydropyrazino[1,2-a]indol-2-yl]-1-(2-methoxyethyl)indole-2-carboxylic acid] | > 9.00 | 0.27 | –
8 | Cc1cc(OCCCc2c3n(c4c(-c5c(C)n[nH]c5C)c(Cl)ccc24)[C@H](C)CN(c2cn(C)c4ccc(C(=O)O)cc24)C3=O)cc(C)c1Cl [Example 129, (R)-3-(7-chloro-10-(3-(4-chloro-3,5-dimethylphenoxy)propyl)-6-(3,5-dimethyl-1H-pyrazol-4-yl)-4-methyl-1-oxo-3,4-dihydropyrazino[1,2-a]indol-2(1H)-yl)-1-methyl-1H-indole-5-carboxylic acid] | > 9.00 | 0.55 | –
9 | Cc1cc(OCCCc2c3n(c4c(-c5c(C)nn(C)c5C)c(Cl)ccc24)[C@H](C)CN(c2cn(C)c4cccc(C(=O)O)c24)C3=O)cc(C)c1Cl [Example 106, (R)-3-(7-Chloro-10-(3-(4-chloro-3,5-dimethylphenoxy)propyl)-4-methyl-1-oxo-6-(1,3,5-trimethyl-1H-pyrazol-4-yl)-3,4-dihydropyrazino[1,2-a]indol-2(1H)-yl)-1-methyl-1H-indole-4-carboxylic acid] | > 9.00 | 0.79 | –
10 | Cc1cc(OCCCc2c3n(c4c(-c5c(C)nn(C)c5C)c(Cl)ccc24)[C@H](C)CN(c2cn(C)c4ccc(-c5nc[nH]n5)cc24)C3=O)cc(C)c1Cl [Example 420, (R)-7-Chloro-10-(3-(4-chloro-3,5-dimethylphenoxy)propyl)-4-methyl-2-(1-methyl-5-(1H-1,2,4-triazol-3-yl)-1H-indol-3-yl)-6-(1,3,5-trimethyl-1H-pyrazol-4-yl)-3,4-dihydropyrazino[1,2-a]indol-1(2H)-one] | 8.70 | 0.28 | –
11 | Cc1cc(OCCCc2c3n(c4c(-c5c(C)ncnc5C)c(Cl)ccc24)[C@H](C)CN(c2cn(C)c4ccc(C(=O)O)cc24)C3=O)cc(C)c1Cl [Example 177, 3-[(4R)-7-chloro-10-[3-(4-chloro-3,5-dimethyl-phenoxy)propyl]-6-(4,6-dimethylpyrimidin-5-yl)-4-methyl-1-oxo-3,4-dihydropyrazino[1,2-a]indol-2-yl]-1-methyl-indole-5-carboxylic acid] | > 9.00 | 0.27 | –
12 | Cc1cc(OCCCc2c3n(c4c(-c5c(C)nn(C)c5C)c(Cl)ccc24)CCCN(c2cc(C(=O)O)c4cnn(C(C)C)c4c2)C3=O)cc(C)c1Cl [Example 92, 6-[8-Chloro-11-[3-(4-chloro-3,5-dimethyl-phenoxy)propyl]-1-oxo-7-(1,3,5-trimethylpyrazol-4-yl)-4,5-dihydro-3H-[1,4]diazepino[1,2-a]indol-2-yl]-1-isopropyl-indazole-4-carboxylic acid] | > 9.00 | 0.9 | –
13 | Cc1cc(OCCCc2c3n(c4c(-c5c(C)ncnc5C)c(Cl)ccc24)CCCN(c2cc(C(=O)O)c4cnn(C)c4c2)C3=O)cc(C)c1Cl [Example 155, 6-[8-Chloro-11-[3-(4-chloro-3,5-dimethyl-phenoxy)propyl]-7-(4,6-dimethylpyrimidin-5-yl)-1-oxo-4,5-dihydro-3H-[1,4]diazepino[1,2-a]indol-2-yl]-1-methyl-indazole-4-carboxylic acid] | > 9.00 | 1.4 | –
14 | Cc1cc(OCCCc2c3n(c4c(-c5c(C)nn(C)c5C)c(Cl)ccc24)[C@H](C)CN(c2nn(C)c4cc(C(=O)O)ccc24)C3=O)cc(C)c1Cl [Example 48, (R)-3-(7-chloro-10-(3-(4-chloro-3,5-dimethylphenoxy)propyl)-4-methyl-1-oxo-6-(1,3,5-trimethyl-1H-pyrazol-4-yl)-3,4-dihydropyrazino[1,2-a]indol-2(1H)-yl)-1-methyl-1H-indazole-6-carboxylic acid] | > 9.00 | 0.8 | –
